The source of these data is PubChem BioAssay AID1918994 (Molecular Pharmacology Branch, DTP, NCI, 2023).

In the assay the test system is 292921-168-R-J2-PDC complex spheroid growth. The assay is described as follows: Anticancer human tumor 292921-168-R-J2-PDC patient-derived pancreatic carcinoma cell line growth inhibition [AhR]. To be noted: for viability, T/C: stronger effect = lower value. The source says:
Multicellular complex tumor spheroid response to aryl hydrocarbon receptor antagonists in combination with a variety of drugs and investigational agents in selected tumor cell lines
The current study was undertaken to assess response to aryl hydrocarbon receptor antagonists in combination with standard-of-care drugs and investigational agents in solid tumor complex spheroid models. Complex spheroids include a stromal component modeled by human endothelial cells (HUVEC) and fibroblasts modeled by human mesenchymal stem cells (MSCs). The concentration ranges selected for each drug and investigational agent were based upon clinically achievable concentrations if the clinical Cmax of the agent was known.
Compounds. The drugs and investigational agents: BAY 2416964 (NSC825713), GNF351 (NSC835774), CH-223191 (NSC835775), CPI-455 (NSC825282), aza-TdCyd (NSC777586), decitabine (NSC127716), belinostat (NSC758774), entinostat (NSC756642), pevonedistat (NSC761192), tazemetostat (NSC777109), talazoparib (NSC765396), olaparib (NSC753686), selinexor (NSC780203), nedisertib (M3814, NSC802822), bortezomib (NSC756655), venetoclax (NSC766270), doxorubicin (NSC123127), elimusertib (BAY189344, NSC800525), ceralasertib (AZD6738, NSC777638), TAK-243 (NSC785004), alisertib (NSC759677), etoposide (NSC141540), topotecan (NSC609699), eribulin (NSC707389), gemcitabine (NSC613327), carboplatin (NSC241240), cisplatin (NSC119875), and SN-38 (NSC673596) were obtained from the National Cancer Institute (NCI) Developmental Therapeutics Program Chemical Repository (32). The FDA-approved anticancer drug set is available from the Developmental Therapeutics Program at https://dtp.cancer.gov/organization/dscb/obtaining/available plates.htm. […] The stock solutions were prepared in dimethyl sulfoxide (DMSO, Sigma-Aldrich, St. Louis, MO, cat. D2650), except for the platinum compounds which were prepared in saline (Quality Biological, Gaithersburg, MD, cat. 114-055-101), at 800-fold the tested concentration and stored at -70 degrees C prior to their use. All drugs and investigational agents were tested over a range starting from a high concentration at or near the clinical Cmax and decreasing in half-log increments. If the clinical Cmax for an agent had not been determined, the highest concentration tested was 10 microM (Table 1).
Cell Culture. All cells were maintained in an incubator at 37 degrees C and 5% CO2 with 95% humidity. The PDC lines were cultured according to standard operating procedures established by the NCI PDMR (https://pdmr.cancer.gov). Briefly, all PDCs were thawed and cultured in Matrigel-coated flasks prepared with a working solution of 1X Ham's F-12 nutrient mix, without supplementation (Invitrogen, Waltham, MA, cat. 11765054), 100 U/mL penicillin-streptomycin (Invitrogen, cat. 15140122), and 2.5% Matrigel (Corning Inc., Corning, NY, cat. 354248) for the first three passages. All PDCs were cultured in complete DMEM/F-12 media containing advanced DMEM/F-12 (Invitrogen, cat. 12634028), 4.9% defined fetal bovine serum, heat inactivated (HyClone Laboratories Inc., Logan, UT, cat. SH30070.03HI), 389 ng/mL hydrocortisone (Sigma-Aldrich, cat. H4001), 9.7 ng/mL human EGF recombinant protein (Invitrogen, cat. PHG0313), 23.4 microg/mL adenine (Sigma-Aldrich, cat. A2786), 97.3 U/mL penicillin-streptomycin (Invitrogen, cat. 15140122), 1.9 mM L-glutamine (Invitrogen, cat. 25030081), and 9.7 microM Y-27632 dihydrochloride (Tocris Bioscience, Bristol, United Kingdom, cat. 1254). The PDCs were cultured in complete DMEM/F12 media without 10 microM Y-27632 dihydrochloride for at least two passages prior to the screen. The established cell lines NCI-H1341 and […] were cultured in DMEM/F-12, HEPES (Invitrogen, cat. 11330032), 5% defined fetal bovine serum (HyClone Laboratories Inc., cat. SH30070.03), ITS premix universal culture supplement [insulin (5 microg/mL), transferrin (5 microg/mL), and selenious acid (5 ng/mL)] […]

Values joined by “and” are separate entries in the source; they are usually repeats but may differ in a detail not shown here. Equal entries are not always repeated.
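Further: spheroids exposed to compounds for seven days after three days of growth.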

What is called viability, T/C is the result in the treated group divided by that in the control group, in per cent. Usually IC50 stands for the point on the concentration scale where inhibition reaches its midpoint. As for `CC(C)c1c(-c2ccccc2)nc2c(C#N)c[nH]n2c1=O`, the viability, T/C is, setting by setting: (compound 0.0316 µM) 113% and 103% (2×); (compound 0.1 µM) 117% and 104% and 107%; (compound 0.316 µM) 105% (2×) and 106%; (compound 1 µM) 115% and 91% and 98.9%; (compound 3.16 µM) 106% and 102% and 99.9%; (compound 10 µM) 95.3% and 96% and 107%. Further, the IC50 (curve of compound) is > 10000 nM.
Take `CC(CO)NC(=O)c1cc(-c2ccc(Cl)cc2)nn(-c2cnn(C)c2)c1=O` (stereo unspecified): the viability, T/C was 102% [middle of 21 runs] (compound 0.1 µM); 98.8% [middle of 21 runs] (compound 0.316 µM); 99.2% [middle of 20 runs] (compound 1 µM); 88.8% [middle of 19 runs] (compound 3.16 µM); 70.5% [middle of 19 runs] (compound 10 µM). The IC50 (compound alone, run of 05/31/2022) is > 10000 nM.
For the compound `CC1COCCN1c1cc(C2(S(C)(=N)=O)CC2)nc(-c2ccnc3[nH]ccc23)n1` (stereo unspecified), the viability, T/C was 98% and 110% (2×) (compound 0.0316 µM); 93.9% and 96.9% and 110% (compound 0.1 µM); 89.8% and 90.3% and 106% (compound 0.316 µM); 89.2% and 77.6% and 79.8% (compound 1 µM); 58% and 44.7% and 50.7% (compound 3.16 µM); 27.7% (2×) and 21.3% (compound 10 µM). The IC50 (curve of compound) is 4300 nM and 2860 nM and 3080 nM.
`COc1ccc([C@@H](O)c2cc(-c3ncnc4cc(N5CCOCC5)ccc34)c(F)cc2Cl)nn1`: the viability, T/C (compound 0.0316 µM) was 92.7% and 96.3% and 98.8%; the viability, T/C (compound 0.1 µM) was 99.2% and 95.5% and 101%; the viability, T/C (compound 0.316 µM) was 88% and 86.4% and 84.7%; the viability, T/C (compound 1 µM) was 64.6% and 70.2% and 62.2%; the viability, T/C (compound 3.16 µM) was 42.2% and 44.8% and 43.1%; the viability, T/C (compound 10 µM) is 27.6% and 24.4% and 25.5%. For the setting “curve of compound”, the IC50 was 2060 nM and 2490 nM and 2000 nM.
As for `Cc1ccccc1N=Nc1ccc(NC(=O)c2ccnn2C)c(C)c1`, the viability, T/C by setting is: (compound 0.1 µM) 91.3% [middle of 19 runs]; (compound 0.316 µM) 85.6% [middle of 20 runs]; (compound 1 µM) 82.1% [middle of 20 runs]; (compound 10 µM) 62.7% [middle of 21 runs]. For the setting “compound alone, run of 06/14/2022”, the IC50 is > 10000 nM.
For `Cc1cncc(-c2nc(NCCc3c[nH]c4ccccc34)c3ncn(C(C)C)c3n2)c1`, the viability, T/C is 90.8% [middle of 20 runs] (compound 0.1 µM), 89.1% [middle of 20 runs] (compound 0.316 µM), 80.5% [middle of 20 runs] (compound 1 µM) and 47.8% [middle of 20 runs] (compound 10 µM).
Turning to `COc1cccc2c1C(=O)c1c(O)c3c(c(O)c1C2=O)CC(O)(C(=O)CO)CC3OC1CC(N)C(O)C(C)O1` (stereo unspecified) + CC(CO)NC(=O)c1cc(-c2ccc(Cl)cc2)nn(-c2cnn(C)c2)c1=O, the IC50 by setting is: (curve of first compound, second compound 0.1 µM) < 31.6 nM; (curve of first compound, second compound 0.316 µM) < 31.6 nM; (curve of first compound, second compound 1 µM) < 31.6 nM; (curve of first compound, second compound 3.16 µM) < 31.6 nM; (curve of first compound, second compound 10 µM) < 31.6 nM. Also, the viability, T/C (second compound 0.1 µM, first compound 0.0316 µM) was 32.5%; the viability, T/C (second compound 0.1 µM, first compound 0.1 µM) was 22.5%; the viability, T/C (second compound 0.1 µM, first compound 0.316 µM) was 7.11%; the viability, T/C (second compound 0.1 µM, first compound 1 µM) is 1.19%; the viability, T/C (second compound 0.1 µM, first compound 3.16 µM) was 3.72%; the viability, T/C (second compound 0.1 µM, first compound 10 µM) was 4.17%. Also, the viability, T/C by setting is: (second compound 0.316 µM, first compound 0.0316 µM) 31.8%; (second compound 0.316 µM, first compound 0.1 µM) 21.6%; (second compound 0.316 µM, first compound 0.316 µM) 8.73%; (second compound 0.316 µM, first compound 1 µM) 1.26%; (second compound 0.316 µM, first compound 3.16 µM) 2.17%; (second compound 0.316 µM, first compound 10 µM) 4.63%. Besides, the viability, T/C is 31.9% (second compound 1 µM, first compound 0.0316 µM); 26.1% (second compound 1 µM, first compound 0.1 µM); 8.6% (second compound 1 µM, first compound 0.316 µM); 1.22% (second compound 1 µM, first compound 1 µM); 2% (second compound 1 µM, first compound 3.16 µM); 4.64% (second compound 1 µM, first compound 10 µM). Moreover, the viability, T/C was 29.6% (second compound 3.16 µM, first compound 0.0316 µM); 22.4% (second compound 3.16 µM, first compound 0.1 µM); 5.98% (second compound 3.16 µM, first compound 0.316 µM); 1.4% (second compound 3.16 µM, first compound 1 µM); 2.71% (second compound 3.16 µM, first compound 3.16 µM); 3.71% (second compound 3.16 µM, first compound 10 µM). For the same compound, the viability, T/C by setting is: (second compound 10 µM, first compound 0.0316 µM) 25.2%; (second compound 10 µM, first compound 0.1 µM) 19.9%; (second compound 10 µM, first compound 0.316 µM) 4.23%; (second compound 10 µM, first compound 1 µM) 1.07%; (second compound 10 µM, first compound 3.16 µM) 2.43%; (second compound 10 µM, first compound 10 µM) 5.08%.
